Laboratory results published in US10370380B2, “Octahydropyrrolo[3,4-c]pyrrole derivatives and uses thereof” (Sunshine Lake Pharma Co., Ltd., priority 2015, dated 2019).

Tests used:
[1] = Pharmacokinetic evaluation after intravenous or gavage administration to rats; type: in vivo, SD rats; details: rats; for AUC(0-inf): read-out: AUCINF; for AUC(0-t): read-out: AUClast; for Cmax: read-out: Cmax; for MRT inf: read-out: MRTINF; for half-life: read-out: T1/2 (converted)
Method: (§1) The compounds disclosed herein were administered in form of a saline solution containing 5% DMSO, 5% Kolliphor HS 15, 2% (2% HCl) and 88% Saline, or a solution containing 10% DMSO, 10% Kolliphor HS 15 and 80% physiological saline to the subject animals. For intravenous administration, the animals were administered with a dose of 1 mg/kg or 2 mg/kg, and vein blood samples (0.3 mL) were collected at the time points of 0.083, 0.25, 0.5, 1.0, 2.0, 4.0, 6.0, 8.0 and 24 h after drug administration; plasma samples were collected by centrifugation of the vein blood samples at 3000 rpm or 4000 rpm for 10 minutes, and stored at −20° C. or −70° C. For gavage administration, the animals were administered with a dose of 2.5 mg/kg or 5 mg/kg, and vein blood samples (0.3 mL) were collected at the time points of 0.25, 0.5, 1.0, 2.0, 4.0, 6.0, 8.0 and 24 h after drug administration; plasma samples were collected by centrifugation at 3000 rpm or 4000 rpm for 10 minutes, and stored at −20° C. or −70° C. The positive control is suvorexant.
(§2) The above plasma samples were analyzed by the LC-MS/MS system.

[2] = Stability in human liver microsome; type: in vitro ADME; details: microsomes, pH 4, human liver microsome 0.5 mg/mL, 1 μM, 37° C., NADPH
Method: A mixture of the compound of the invention and human liver microsome in 0.1 M potassium phosphate buffer (containing 1.0 mM EDTA, pH=4) was incubated at 37° C., the sample concentrations at different incubation times were measured, and then the half life of the compound was calculated by plotting “the relative amount of the compound” against “incubation time” by using software GraphPad Prism 5.01, and intrinsic clearance was calculated. The experiment system shown as table 5:
The sample was analyzed by LC/MS/MS (ESI […] source and waters xbridge C18 EB-A-1420 chromatographic column were adopted), the mobile phases were an aqueous solution with 2 mM ammonium formate and 0.1% formic acid (mobile phase A) and an methanol solution with 2 mM ammonium formate and 0.1% formic acid (mobile phase B), the flow rate was 0.4 mL/min; the column temperature was 40° C. The ratio of the sample peak area to the internal standard peak area was obtained through LC/MS/MS analysis, the content of the compound at 0 time point was as 100%, the relative content of the compound at each time point was calculated. The half life of the compound was calculated by plotting “the relative amount of the compound” against “incubation time”, and intrinsic clearance was calculated.
The positive control is suvorexant.

[3] = Pharmacokinetic evaluation after intravenous or gavage administration to dogs; type: in vivo, Beagle dogs; details: dogs; for AUC(0-inf): read-out: AUCINF; for AUC(0-t): read-out: AUClast; for Cmax: read-out: Cmax; for MRT inf: read-out: MRTINF; for half-life: read-out: T1/2 (converted)
Method: as §1, §2

hERG channel = molecular target: T1, hERG channel (Homo sapiens, UniProt Q12809); experiment: hERG fluorescence polarization assay (potential of inducing QT interval prolongation); type: binding
T1 construct: purchased Invitrogen
T1 sequence (Q12809 whole entry): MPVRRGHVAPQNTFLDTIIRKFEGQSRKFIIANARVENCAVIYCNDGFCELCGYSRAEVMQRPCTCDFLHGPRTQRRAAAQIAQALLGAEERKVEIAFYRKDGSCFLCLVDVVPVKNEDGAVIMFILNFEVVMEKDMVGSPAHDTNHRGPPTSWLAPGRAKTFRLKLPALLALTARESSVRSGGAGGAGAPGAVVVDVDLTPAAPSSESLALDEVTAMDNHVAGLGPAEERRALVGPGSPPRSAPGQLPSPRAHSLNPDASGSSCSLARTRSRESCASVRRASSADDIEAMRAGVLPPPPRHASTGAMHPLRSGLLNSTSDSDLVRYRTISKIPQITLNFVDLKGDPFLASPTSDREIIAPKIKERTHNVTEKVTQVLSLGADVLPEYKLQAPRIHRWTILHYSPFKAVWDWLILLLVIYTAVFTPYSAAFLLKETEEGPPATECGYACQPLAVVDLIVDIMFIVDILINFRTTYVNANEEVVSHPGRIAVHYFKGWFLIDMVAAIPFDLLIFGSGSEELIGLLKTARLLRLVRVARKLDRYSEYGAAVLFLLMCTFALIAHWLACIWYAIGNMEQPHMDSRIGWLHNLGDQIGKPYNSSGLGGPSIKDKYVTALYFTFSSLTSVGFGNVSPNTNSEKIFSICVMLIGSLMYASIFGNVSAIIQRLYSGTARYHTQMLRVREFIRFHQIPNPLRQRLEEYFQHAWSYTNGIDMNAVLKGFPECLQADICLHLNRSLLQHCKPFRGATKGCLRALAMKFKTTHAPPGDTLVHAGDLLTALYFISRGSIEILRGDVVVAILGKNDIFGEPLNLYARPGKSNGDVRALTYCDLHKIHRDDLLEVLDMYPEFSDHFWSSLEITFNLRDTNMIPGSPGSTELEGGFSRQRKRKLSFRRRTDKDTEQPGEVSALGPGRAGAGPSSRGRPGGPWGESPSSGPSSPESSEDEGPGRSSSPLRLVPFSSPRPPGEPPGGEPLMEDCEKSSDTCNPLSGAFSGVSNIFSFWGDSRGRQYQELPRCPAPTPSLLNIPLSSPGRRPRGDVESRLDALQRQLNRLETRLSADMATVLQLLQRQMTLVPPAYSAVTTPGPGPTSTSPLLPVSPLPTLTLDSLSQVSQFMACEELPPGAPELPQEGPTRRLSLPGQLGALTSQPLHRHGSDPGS
Method: The potential of the compound disclosed herein inducing QT interval prolongation was evaluated by detecting if the compound would block the hERG channel. The specific test method is as follows:
Precisely weighed compound disclosed herein was dissolved in DMSO to formulate a solution at the highest concentration of 10.0 mM, and then the solution was diluted to a initial concentration of 120.0 μM with hERG FP Assay Buffer (Invitrogen); the hERG Tracer Red stock solution (Invitrogen) and the positive control E-4031 stock solution (Invitrogen) were respectively diluted to initial concentrations of 4.0 nM and 120.0 μM with hERG FP Assay Buffer (Invitrogen). […]
The above-mentioned solution of the compound disclosed herein and E-4031 at the initial concentration of 120 μM were respectively diluted with hERG FP Assay Buffer 5-fold in series to provide 8 concentration of 120.0 μM, 24.0 μM, 4.8 μM, 960.0 nM, 192.0 nM, 38.4 nM, 7.7 nM and 1.5 nM. […] After that, the 384-well plate was put into an oscillator (PHMP-4, Grant-sio), in 25° C., 250 rpm, to incubate for 4 hours, and the fluorescence polarization values were measured by multi-function microplate reader (PHERAStarFS, BMG LABTECH) and corrected with the minimum and maximum fluorescence polarization values of E-4031, and the IC50 of the compound disclosed herein was calculated by GraphPad software. […]

[4] = beagle, dog, in vivo, iv, 1 mg/kg
[5] = beagle, dog, in vivo, po, 5 mg/kg

With `Cc1ccc(-n2nccn2)c(C(=O)N2CCN(c3nc4cc(Cl)ccc4o3)CC[C@H]2C)c1` [suvorexant, reference compound] as the compound, how does the AUC(0-inf) ([1]; SD, rat, in vivo, iv, 2 mg/kg) read?
Its AUC(0-inf) is 655 ng·h/mL.

And the AUC(0-t) ([1]; SD, rat, in vivo, iv, 2 mg/kg)?
The AUC(0-t) was 655 ng·h/mL.

And the clearance ([1]; SD, rat, in vivo, iv, 2 mg/kg, read-out: Cl)?
Its clearance is 51.2 mL/min/kg.

And the Cmax ([1]; SD, rat, in vivo, iv, 2 mg/kg)?
Its Cmax is 784 ng/mL.

And the MRT inf ([1]; SD, rat, in vivo, iv, 2 mg/kg)?
Its MRT inf is 0.708 h.

What about the half-life ([1]; SD, rat, in vivo, iv, 2 mg/kg) of the same compound?
Its half-life is 0.569 h.

And the Vd ([1]; SD, rat, in vivo, iv, 2 mg/kg, read-out: Vss)?
Its Vd is 2.17 L/kg.

What about the AUC(0-inf) ([1]; SD, rat, in vivo, po, 5 mg/kg) of the same compound?
The AUC(0-inf) was 530 ng·h/mL.

And the AUC(0-t) ([1]; SD, rat, in vivo, po, 5 mg/kg)?
Its AUC(0-t) is 528 ng·h/mL.

What about the Cmax ([1]; SD, rat, in vivo, po, 5 mg/kg) of the same compound?
Its Cmax is 249 ng/mL.

And the MRT inf ([1]; SD, rat, in vivo, po, 5 mg/kg)?
The MRT inf was 1.95 h.

And the half-life ([1]; SD, rat, in vivo, po, 5 mg/kg)?
The half-life was 0.99 h.

What about the F ([1]; po, 5 mg/kg) of the same compound?
The F was 32.4%.

What about the half-life at 1 μM ([2]; read-out: Half life) of the same compound?
Its half-life at 1 μM is 9.85 min.

What about the CLint scaled at 1 μM ([2]; read-out: intrinsic clearance) of the same compound?
Its CLint scaled at 1 μM is 176 mL/min/kg.

What about the AUC(0-inf) [3, 4] of the same compound?
Its AUC(0-inf) is 5960 ng·h/mL.

What about the AUC(0-t) [3, 4] of the same compound?
Its AUC(0-t) is 5750 ng·h/mL.

And the clearance ([3]; beagle, dog, in vivo, iv, 1 mg/kg, read-out: Cl)?
The clearance was 2.82 mL/min/kg.

And the Cmax [3, 4]?
Its Cmax is 2100 ng/mL.

What about the MRT inf [3, 4] of the same compound?
The MRT inf was 5.39 h.

What about the half-life [3, 4] of the same compound?
Its half-life is 5.79 h.

And the Vd ([3]; beagle, dog, in vivo, iv, 1 mg/kg, read-out: Vss)?
Its Vd is 0.919 L/kg.

And the AUC(0-inf) [3, 5]?
The AUC(0-inf) was 14300 ng·h/mL.

And the AUC(0-t) [3, 5]?
The AUC(0-t) was 13600 ng·h/mL.

What about the Cmax [3, 5] of the same compound?
Its Cmax is 1640 ng/mL.

What about the MRT inf [3, 5] of the same compound?
Its MRT inf is 7.2 h.

And the half-life [3, 5]?
The half-life was 5.71 h.

What about the F ([3]; po, 5 mg/kg) of the same compound?
The F was 48%.

What about the IC50 (hERG channel) of the same compound?
Its IC50 is 1790 nM.
